The values below are quoted from earlier work in patent US20100028432A1, “FORMULATIONS OF ACTIVE PRINCIPLES INCORPORATED IN SLNS SUITABLE FOR TRANSDERMAL ADMINISTRATION” (NANOVECTOR S.R.L., priority 2006, published 2010).

The conditions of series [1]: administered orally.
The conditions of series [2]: transdermal systems of U.S. Pat. No. 5,508,039 containing melatonin powder and an absorption enhancer; in vitro tests.
The conditions of series [3]: intravenous bolus injection.
For series [4] the following is noted: in vivo.

In the case of `COc1ccc2[nH]cc(CCNC(C)=O)c2c1` [melatonin, N-acetyl-5-methoxytryptamine], the bioavailability result in series [1] was “low and variable bioavailability”. For the same compound, the plasma clearance entry in series [1] (marked first-pass hepatic metabolism) is given as “rapid plasma clearance”. The half-life of melatonin in series [2] was not above 2 h. In addition, the half-life result in series [3] is given as “around 40 minutes”.
For the compound `CN1CCc2cccc3c2[C@H]1Cc1ccc(O)c(O)c1-3` [Apomorphine], in series [4], the elimination time result is on record as “about 33 minutes”.
